Source: the supplement of paper PMC11061612

How the values were obtained:
Test in all cases: combination Emax (second highest fraction inhibited in the dose matrix, 72 h); higher = more inhibition; extreme values may be limits of the assay
[1] = system: CHSA8926 (Chondrosarcoma)
In short: (§1)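 Cell lines in DMEM/F12 or RPMI with 10% FBS were plated in 1536-well plates, held 24 hours at 37°C, 5% CO2, then given two-drug dose matrices for 72 hours (DMSO typically 0.2%). Viability was read by CellTiter-Glo 2.0 luminescence and scaled as inhibition from 0 (vehicle wells) to 1 (blank wells). Combination Emax is the second-highest inhibition in the matrix; Bliss excess is observed combination effect minus expected EA + EB − EA·EB, EA and EB being single-agent effects.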

[2] = system: ESO51 (Esophageal Adenocarcinoma)
In short: as §1

[3] = system: H9 (T-Cell Non-Hodgkin's Lymphoma)
In short: as §1

[4] = system: HCC1187 (Breast Carcinoma)
In short: as §1

[5] = system: IM-95 (Gastric Carcinoma)
In short: as §1

[6] = system: JHH-4 (Hepatocellular Carcinoma)
In short: as §1

[7] = system: KP-3 (Pancreatic Carcinoma)
In short: as §1

[8] = system: KU812 (Chronic Myelogenous Leukemia)
In short: as §1

[9] = system: KY821 (Acute Myeloid Leukemia)
In short: as §1

[10] = system: KYSE-270 (Esophageal Squamous Cell Carcinoma)
In short: as §1

[11] = system: NCI-H520 (Squamous Cell Lung Carcinoma)
In short: as §1

RD (Rhabdomyosarcoma) = system: RD (Rhabdomyosarcoma)
In short: as §1

[12] = system: RPMI-8226 (Plasma Cell Myeloma)
In short: as §1

SJSA-1 (Osteosarcoma) = system: SJSA-1 (Osteosarcoma)
In short: as §1

[13] = system: SK-GT-4 (Esophageal Adenocarcinoma)
In short: as §1

[14] = system: SNU-398 (Hepatocellular Carcinoma)
In short: as §1

[15] = system: SUP-B15 (B-Lymphoblastic Leukemia)
In short: as §1

[16] = system: T-T (Esophageal Squamous Cell Carcinoma)
In short: as §1

[17] = system: VMRC-RCZ (Kidney Carcinoma)
In short: as §1

Row | SMILES | combination Emax [1] | combination Emax [2] | combination Emax [3] | combination Emax [4] | combination Emax [5] | combination Emax [6] | combination Emax [7] | combination Emax [8] | combination Emax [9] | combination Emax [10] | combination Emax [11] | combination Emax (RD (Rhabdomyosarcoma)) | combination Emax [12] | combination Emax (SJSA-1 (Osteosarcoma)) | combination Emax [13] | combination Emax [14] | combination Emax [15] | combination Emax [16] | combination Emax [17]
1 | NC1(C(=O)N[C@@H](CCO)c2ccc(Cl)cc2)CCN(c2ncnc3[nH]ccc23)CC1 [Capivasertib] + CC(=O)c1c(C)c2cnc(Nc3ccc(N4CCNCC4)cn3)nc2n(C2CCCC2)c1=O [Palbociclib] (first compound max 10 µM, 7x7, partner max 10 µM) | 0.48 | 0.356 | 0.985 | 0.257 | 0.423 | 0.466 | 0.25 | 0.552 | 0.757 | 0.27 | 0.717 | 0.463 | 0.483 | 0.51 | 0.588 | 0.472 | 0.94 | 0.344 | 0.401
2 | NC1(C(=O)N[C@@H](CCO)c2ccc(Cl)cc2)CCN(c2ncnc3[nH]ccc23)CC1 [Capivasertib] + CC(C)n1c(=O)n(C)c2cnc3cc(F)c(-c4ccc(OCCCN5CCCCC5)nc4)cc3c21 [AZD1390] (first compound max 10 µM, 7x7, partner max 0.3 µM) | 0.379 | 0.246 | 0.78 | 0.296 | 0.333 | 0.178 | 0.203 | 0.48 | 0.547 | 0.415 | 0.699 | 0.295 | 0.135 | 0.406 | 0.506 | 0.25 | 0.398 | 0.282 | 0.372
3 | NC1(C(=O)N[C@@H](CCO)c2ccc(Cl)cc2)CCN(c2ncnc3[nH]ccc23)CC1 [Capivasertib] + CCN(CCO)CCCOc1ccc2c(Nc3cc(CC(=O)Nc4cccc(F)c4)[nH]n3)ncnc2c1 [AZD2811] (first compound max 10 µM, 7x7, partner max 1 µM) | 0.46 | 0.248 | 1 | 0.833 | 0.427 | 0.226 | 0.284 | 0.727 | 0.613 | 0.329 | 0.688 | 0.349 | 0.422 | 0.489 | 0.621 | 0.542 | 0.929 | 0.331 | 0.461
4 | NC1(C(=O)N[C@@H](CCO)c2ccc(Cl)cc2)CCN(c2ncnc3[nH]ccc23)CC1 [Capivasertib] + COc1nnc2ccc(N3CCC(c4ccc(OCCN5CCN(C)C(=O)[C@H]5C)cc4)CC3)nn12 [AZD5153] (first compound max 10 µM, 7x7, partner max 1 µM) | 0.48 | 0.622 | 1 | 0.309 | 0.562 | 0.324 | 0.296 | 0.931 | 1 | 0.466 | 0.806 | 0.683 | 0.878 | 0.727 | 0.758 | 0.565 | 1 | 0.527 | 0.487
5 | NC1(C(=O)N[C@@H](CCO)c2ccc(Cl)cc2)CCN(c2ncnc3[nH]ccc23)CC1 [Capivasertib] + C[C@@H]1COCCN1C2=NC(=NC(=C2)C3(CC3)[S@](=N)(=O)C)C4=C5C=CNC5=NC=C4 [AZD6738] (first compound max 10 µM, 7x7, partner max 10 µM) | 0.54 | 0.817 | 1 | 0.51 | 0.456 | 0.309 | 0.318 | 0.851 | 1 | 0.651 | 0.711 | 0.402 | 0.875 | 0.713 | 0.614 | 0.752 | 0.986 | 0.389 | 0.549
6 | NC1(C(=O)N[C@@H](CCO)c2ccc(Cl)cc2)CCN(c2ncnc3[nH]ccc23)CC1 [Capivasertib] + Cn1cnc2c(F)c(Nc3ccc(Br)cc3Cl)c(C(=O)NOCCO)cc21 [Selumetinib] (first compound max 10 µM, 7x7, partner max 10 µM) | 0.48 | 0.624 | 1 | 0.296 | 0.502 | 0.663 | 0.417 | 0.983 | 0.891 | 0.476 | 0.548 | 0.633 | 0.43 | 0.658 | 0.767 | 0.472 | 0.805 | 0.429 | 0.388
7 | Cc1nc(Nc2ncc(C(=O)Nc3c(C)cccc3Cl)s2)cc(N2CCN(CCO)CC2)n1 [Dasatinib] + CC(=O)Nc1cccc(-n2c(=O)n(C3CC3)c(=O)c3c(Nc4ccc(I)cc4F)n(C)c(=O)c(C)c32)c1 [Trametinib] (first compound max 2 µM, 7x7, partner max 1 µM) | 0.823 | 0.949 | 0.892 | 0.137 | 0.288 | 1 | 0.61 | 1 | 0.691 | 0.603 | 0.233 | 0.769 | 0.239 | 0.522 | 0.791 | 0.501 | 0.952 | 0.5 | 0.454
8 | CS(=O)(=O)CCNCc1ccc(-c2ccc3ncnc(Nc4ccc(OCc5cccc(F)c5)c(Cl)c4)c3c2)o1 [Lapatinib] + C[C@@H](Oc1cc(-c2cnn(C3CCNCC3)c2)cnc1N)c1c(Cl)ccc(F)c1Cl [Crizotinib] (first compound max 10 µM, 7x7, partner max 10 µM) | 0.928 | 0.997 | 0.983 | 0.715 | 0.854 | 0.546 | 0.557 | 0.999 | 0.986 | 0.967 | 0.659 | 0.891 | 0.679 | 0.908 | 0.82 | 0.77 | 0.963 | 0.938 | 0.365
9 | CS(=O)(=O)CCNCc1ccc(-c2ccc3ncnc(Nc4ccc(OCc5cccc(F)c5)c(Cl)c4)c3c2)o1 [Lapatinib] + NC1(c2ccc(-c3nc4ccn5c(=O)[nH]nc5c4cc3-c3ccccc3)cc2)CCC1 [MK-2206] (first compound max 10 µM, 7x7, partner max 10 µM) | – | – | 0.94 | – | 0.509 | – | 0.205 | 0.917 | 0.969 | 0.913 | 0.922 | – | – | 0.897 | 0.7 | – | – | 0.928 | 0.408
10 | CC(=O)c1c(C)c2cnc(Nc3ccc(N4CCNCC4)cn3)nc2n(C2CCCC2)c1=O [Palbociclib] + CC1(C)CCC(CN2CCN(c3ccc(C(=O)NS(=O)(=O)c4ccc(NCC5CCOCC5)c([N+](=O)[O-])c4)c(Oc4cnc5[nH]ccc5c4)c3)CC2)=C(c2ccc(Cl)cc2)C1 [Venetoclax] (first compound max 10 µM, 7x7, partner max 1 µM) | 0.188 | 0.288 | 0.626 | 0.198 | 0.105 | 0.328 | 0.0792 | 0.521 | 1 | 0.125 | 0.628 | 0.331 | 0.387 | 0.276 | 0.216 | 0.326 | 0.989 | 0.242 | 0.105
11 | CC(=O)c1c(C)c2cnc(Nc3ccc(N4CCNCC4)cn3)nc2n(C2CCCC2)c1=O [Palbociclib] + Cc1c2c(nn1C)CSCc1cc(n(C)n1)CSc1cc(c3ccccc3c1)OCCCc1c(C(=O)O)n(C)c3c-2c(Cl)ccc13 [AZD5991] (first compound max 10 µM, 7x7, partner max 1 µM) | 0.289 | 0.218 | 0.742 | 1 | 0.33 | 0.397 | 0.221 | 0.834 | 1 | 0.568 | 0.638 | 0.317 | 0.939 | 0.351 | 0.305 | 0.944 | 0.986 | 0.799 | 0.194
12 | CCc1c2c(nc3ccc(O)cc13)-c1cc3c(c(=O)n1C2)COC(=O)[C@]3(O)CC [SN-38] + O=C(c1cc(Cc2n[nH]c(=O)c3ccccc23)ccc1F)N1CCN(C(=O)C2CC2)CC1 [Olaparib] (first compound max 0.3 µM, 7x7, partner max 10 µM) | 0.452 | 0.624 | 1 | 0.467 | 0.465 | – | 0.0787 | 0.756 | 0.998 | 0.949 | 0.834 | – | – | 0.804 | 0.4 | 0.255 | – | 0.835 | 0.281
13 | Cc1nc(-c2cn3c(n2)-c2ccc(-c4cnn(C(C)(C)C(N)=O)c4)cc2OCC3)n(C(C)C)n1 [Taselisib] + O=C(Nc1ccc2[nH]nc(-c3ccncc3)c2c1)[C@@H]1CCN(CC(=O)N2CCN(c3ccc(-c4ncccn4)cc3)CC2)C1 [SCH772984] (first compound max 10 µM, 7x7, partner max 5 µM) | – | – | – | – | – | – | 0.354 | 1 | – | 0.822 | 0.638 | – | – | 0.69 | 0.924 | – | – | 0.853 | 0.361
